Measured values from patent publication US20230124720A1, “APPLICATION OF ACRIDINEDIONE COMPOUND IN PREPARATION OF ANTI-DIABETIC DRUGS” (THE FOURTH MILITARY MEDICAL UNIVERSITY, priority 2020, published 2023).

Key:
[1] = molecular target: T1, HEK-293T cells stably overexpressing GPR40 (Homo sapiens, UniProt O14842); assay: GPR40 agonistic activity assay (Fluo-4 AM fluorescence, Flexstation); format: cell-based
T1 construct: expressed in transfected cells; host or cells: HEK-293T
Protocol: There were triplicate wells for each group, and a Flexstation instrument was used for detecting and reading fluorescence values. Each compound dilution concentration was: 200 μmol/L, 100 μmol/L, 50 μmol/L, 10 μmol/L, 5 μmol/L.
EC50 value for each compound was calculated from the measured fluorescence value according to the following formula:
Relative agonism ratio=(fluorescence value of test compound-fluorescence value of negative control)/(fluorescence value of agonist positive control-fluorescence value of negative control)*100%;

MIN6 cells [2] = assay: Cytotoxicity / growth of MIN6 cells (FIG. 1A); format: cell-based, mouse; settings: 100 μmol/L
STZ-induced T2DM rats = assay: Serum lipid metabolism indicators in T2DM rats; format: in vivo, rat
Protocol: 150 male SD rats, housed in cages in a clean constant temperature (23±2° C.) and humidity (55±10%) animal house, were manually adjusted on a daily 12 h/12 h diurnal light cycle with free access to water. After 3 days of adaptive feeding, 150 rats were randomly divided into normal and model groups. The normal (Con, n=15) group of rats remained on raw chow and the model group (n=135) of rats were given high fat high sugar chow. All rats were fed twice daily and the amount of feed was adjusted as needed to ensure adequate feed. After 8 weeks of group feeding, the model group rats were given an intraperitoneal injection of 25 mg/kg STZ solution with a 12 h fast prior to injection. After injection, feeding was continued as in the original method, blood was taken from the tail vein at 72 h for blood glucose measurement, and rats with fasting blood glucose levels ≥11.1 mmol/L on different days were screened for successful artificial induction of T2DM and administered in groups for the next experiment. 135 rats with successful modeling were randomly divided into 9 groups: […] […] Relevant indicators of lipid metabolism were measured after the end of the study.

[3] = Plasma kinetics after single oral administration in SD rats (LC-MS/MS); format: in vivo, rat; settings: single oral 10 mg/kg
Protocol: Eight healthy male SD rats, weighing 200-220 g, were housed in a clean animal room maintained at constant temperature (23±2° C.) and humidity (55±10%) with a 12 h/12 h artificial light cycle with free access to food and water and conditioned for 3 days prior to the experiment. All rats were fasted from water for 12 h prior to the experiment, and after oral administration of an ADD-16 solution (10 mg/kg) to each rat, and blood was taken at the orbital site at 5, 10, 15, 30, 45, 60, 120, 240, 360, 720, 1440 min. The blood was immediately fed into heparinized centrifuge tubes at 4° C., 3000 rpm/min, centrifuged for 10 min, and the supernatant plasma was carefully aspirated and stored at −80° C. Assays were performed by natural thawing at room temperature and plasma sample pre-treatment procedures were followed to determine plasma concentrations in rats following a single dose using the established LC-MS/MS method.

MIN6 cells [4] = assay: Insulin secretion in PA-induced insulin-resistant MIN6 cells; format: cell-based, mouse
Protocol: MIN6 cells were seeded in 24-well plates and cultured as described in step 2.1 to a cell confluency of more than 80% and administrated in the following groups, with 12 replicates per group: (1) normal control group (Con): cultured with blank 1640 medium; (2) insulin resistance model panel (IR): treated with 0.125 mmol/L PA for 24 h to induce establishment of an insulin resistance model; (3) ADD-16 administration group (ADD): 10 μmol/L ADD-16 intervention was administered for 24 h after successful establishment of the insulin resistance model; (4) TAK875 control group (TAK875): 10 μmol/L TAK875 was administered as a positive control drug intervention for 24 h after successful establishment of the insulin resistance model; (5) metformin control group (MT): 10 mmol/L metformin was administered as a positive control drug intervention for 24 h after successful establishment of the insulin resistance model; (6) sitagliptin control group (ST): 10 μmol/L sitagliptin was administered as a positive control drug intervention for 24 h after successful establishment of the insulin resistance model. After the group administration, the medium was aspirated and washed 2 times with a KRB buffer without sugar, followed by the addition of the KRB buffer without sugar. […] After incubation at 37° C. for 1 h, all the medium in the wells was aspirated and centrifuged at 2000 rmp/min for 20 min, and the supernatant was collected and stored at −20° C. The insulin content was measured for each group.

MIN6 cells [5] = assay: Western Blot / immunofluorescence of insulin signaling related molecules in insulin-resistant MIN6 cells; format: cell-based, mouse
Protocol: MIN6 cells were seeded in culture dishes at the appropriate density and cultured as described in step 2.1 to a confluency of about 80%. Cells were divided into the following 5 groups: (1) normal control group (Con): cultured with blank 1640 medium; (2) insulin resistance model panel (IR): treatment with 0.125 mmol/L PA for 24 h to induce establishment of a MIN6 cell insulin resistance model; (3) 3 μmol/L ADD-16 administration group (ADD I): 3 μmol/L ADD-16 intervention was given for 24 h after successful establishment of the insulin resistance model; (4) 10 μmol/L ADD-16 administration group (ADD II): 10 μmol/L ADD-16 intervention was given for 24 h after successful establishment of the insulin resistance model; (5) TAK875 control group (TAK875): 10 μmol/L TAK875 was administered as a positive control drug intervention for 24 h after successful establishment of the insulin resistance model. At the end of the group administration, groups of cells were harvested for WB or IF experiments.

T1 sequence (O14842 whole entry): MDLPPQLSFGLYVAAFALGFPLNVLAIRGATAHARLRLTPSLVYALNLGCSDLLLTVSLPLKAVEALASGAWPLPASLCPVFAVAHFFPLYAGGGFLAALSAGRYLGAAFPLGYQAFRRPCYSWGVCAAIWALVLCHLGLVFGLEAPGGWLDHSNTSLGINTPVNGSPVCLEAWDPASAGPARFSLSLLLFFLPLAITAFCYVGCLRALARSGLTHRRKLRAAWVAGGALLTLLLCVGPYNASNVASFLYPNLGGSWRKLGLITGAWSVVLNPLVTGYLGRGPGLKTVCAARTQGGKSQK

Question: Which results are given for `CC1(C)CC(=O)C2=C(C1)NC1=C(C(=O)CC(C)(C)C1)C2c1ccc(OCc2ccc(C(=O)O)cc2)c(Br)c1` [ADD-16]?
Answer: EC50 ([1]; GPR40 agonism, n = 6): 12.3 µM; agonistic activity (in words) ([1]; among the candidate compounds screened): highest agonistic activity; effect on MIN6 cell growth (in words) (MIN6 cells [2]): inhibitory effect on MIN6 cell growth; TG, LDL and HDL levels, 10 mg/kg against 3 mg/kg (in words) (STZ-induced T2DM rats; ADD V (10 mg/kg) group): significantly lower than ADD IV (3 mg/kg) group rats; serum FFA, TC, TG, LDL and HDL levels (in words) (STZ-induced T2DM rats; four weeks after administration, ADD-16: ADD III-ADD VI groups (1-50 mg/kg), P<0.05): significantly decreased; CL/F ([3]; male, SD, rat, plasma, po, 10 mg/kg, plasma, n = 8, read-out: CLz/F (clearance) (converted)): ~0.15 mL/min/kg; Cmax ([3]; male, SD, rat, plasma, po, 10 mg/kg, plasma, n = 8, read-out: Cmax (plasma concentration maximum)): ~395 ng/mL; Vd/F ([3]; male, SD, rat, plasma, po, 10 mg/kg, plasma, n = 8, read-out: Vz/F (apparent volume of distribution)): ~0.36 L/kg; half-life ([3]; male, SD, rat, plasma, po, 10 mg/kg, plasma, n = 8, read-out: t1/2z (half-life) (converted)): ~30.2 h; AUC(0-inf) ([3]; male, SD, rat, plasma, n = 8): 2420 ± 527 ng·h/mL; AUC(0-t) ([3]; male, SD, rat, plasma, n = 8): 1130 ± 35.7 ng·h/mL; Tmax ([3]; male, SD, rat, plasma, n = 8): 0.5 h; MRT last ([3]; male, SD, rat, plasma, n = 8, read-out: MRT(0-t)): 8.8 ± 0.4 h; MRT inf ([3]; male, SD, rat, plasma, n = 8, read-out: MRT(0-∞)): 37.5 ± 9.2 h; time of maximum blood concentration [3]: 30 min; Cz ([3]; plasma, n = 8): 29.8 ± 10.3 ng/mL; VRT(0-t) ([3]; plasma, n = 8): 55.2 ± 3.0 h^2; VRT(0-∞) ([3]; plasma, n = 8): 1908.2 ± 835.5 h^2; insulin secretion level in insulin-resistant MIN6 cells (in words) (MIN6 cells [4]; PA-induced IR model, 10 μmol/L, 24 h, 2.8 and 16.7 mmol/L glucose, P<0.001): even higher than in Con group; insulinotropic effect compared with TAK875 in insulin-resistant MIN6 cells (in words) (MIN6 cells [4]; same administration concentrations (10 μmol/L)): slightly better than TAK875; GPR40 expression, immunofluorescence staining (in words) (MIN6 cells [5]; MIN6 cells): upregulate GPR40 expression; expression of insulin signaling-related molecules, Western Blot (in words) (MIN6 cells [5]; insulin-resistant MIN6 cells, 24 h, P<0.001): upregulate GPR40, PGC-1α, P-P38, P-EP300, PPARγ, P-AKT, PI3K, IRS1 and GLUT4 expression
